Source: article PMC12067741, “Inhibition of SOD1 trimerization is a novel drug target for ALS disease” (Translational Neurodegeneration, 2025)
Values belong to the molecule of their own block, whether it stands above or below them.

Assays:
[1] = BBB-PAMPA (parallel artificial membrane permeability assay); details: for recovery at 4 h, 10 µM: PAMPA
Text: Next, we checked the basic in vitro ADME test including pharmacokinetics, plasma protein binding, CYP (Cytochrome P450) inhibition, metabolic stability and blood–brain barrier (BBB) permeability. […] We also plan to test safety panel assay in the future to obtain safety data for the drug.
Fig. S8. […]

[2] = system: MT-SOD1 protein uptake; assay: SOD1 recombinant protein uptake into neuronal cells; type: cell-based; details: SH-SY5Y cells, Dynasore 50 mM (so in the source), 6 hr
Protocol: For monitoring the localization of SOD1 recombinant proteins, SOD1-Halo proteins were added in neuronal cultures for 2 h and then the cells were incubated with the cell-permeable HaloTag-fluorscent ligands (diAcFAM) for 30 min. After incubation, cells were washed with serum-free culture medium three times and incubated in serum-containing culture medium in a CO2 incubator for 30 min to wash out unbound ligand. Fluorescent images of live cells were obtained using a commercial Tomocube HT-2H holotomography system (Daejeon, Republic of Korea).
We hypothesized that PRG-A-04, which targets trimeric SOD1, would inhibit SOD1 protein uptake. MT-SOD1 proteins were incubated with PRG-A-04 in vitro, and then cells were treated with the mixture. The MT-SOD1 protein uptake was reduced by incubation with PRG-A-04, as was SOD1 oligomerization (Fig. 3f, g). […] However, whether neuron-specific receptors on synapses, physiological conditions (neuronal cellular stress such as ion deficiency, environmental conditions such as hypoxia) and other ALS-related genetic causes (TDP-43, FUS, etc.) are essential for SOD1 uptake requires further study.
Fig. S3 SOD1 protein uptake into the cells through endocytosis. a, The uptake of SOD1 proteins was achieved by endocytosis. SH-SY5Y cells were treated with SOD1 recombinant proteins and endocytosis inhibitor (Dynasore; […]) for 6hr. After incubations, cells were harvested with RIPA and separated by SDS-PAGE. S.E: short exposure, L.E: long exposure. b, The recombinant MT-SOD1 protein is located intracellular space in neuron cells. SOD1-Halo proteins (3 μg/ml) were treated in neuron cells for 2 hr and incubated with HaloTag-fluorscent ligands (cellpermeable ligands; diAcFAM) for 30 min. After incubation, cells were washed with fresh culture medium three times and.
Incubate cells in complete culture medium at CO2 incubator for 30 min to wash unbound ligand. The fluorescence images of live cells were obtained using a commercial holotomography (HT-2H). White arrows indicate the intensity of SOD1. BF; Bright field, Scale bar; […].

[3] = Pharmacokinetics in mice (compound screening, IV/PO); type: in vivo, mouse
Protocol: Fig. S1. Optimized inhibitor reduces SOD1 aggregation. a, Mutant SOD1s induced WT-SOD1 aggregation. Testing the selected chemicals to check the inhibitory effect on SOD1 aggregation .HEK293 cells were transfected with MT-SOD1 vectors (A4V, G 93 A) and treated with selected chemicals (5 mM). After incubation, transfected cells were harvested with TNNI buffer and fixed with 0.04% glutaraldehyde (Glu) for 30min. Samples were separated using SDS-PAGE. b-c, PRG-A-04 inhibited SOD1 inclusions in SK-N-SH cells. (b) Cells expressing MT-SOD1 vectors were treated with PRG-A-04 ([…]) for 24 hr. After incubation, cells were fixed with 4 % PFA and observed under the fluorescence microscope. (c) Cells with SOD1 inclusions (white arrows; strong intensity of SOD1) were counted by photomicrographs and the percentages were shown with standard deviation (SD). For cell counting, ten fluorescence images were randomly selected. Counting of cells were performed by three independent observers, who were blinded to transfection or chemical treatment group; two-tailed Student’s t-test. NS; Not significant, ****P < 0.001, d, PRG-A- […]
degradationin blood as well as gastro-intestinal tract.IV; intravenous injected group, PO; Per Os administrated group e, […]
show cytotoxicity. To know the toxic effect of PRG-A-04 , human normal fibroblast (f) and neuron cells (g) were incubated with PRG -A-04 for 48 hr dose dependently and measured the viability through MTT assay .“Con” means Dimethyl sulfoxide (DMSO) -treated control . The data are normalized to DMSO-treated cells. n=3 independent experiments; two-tailed Student’s t-test.NS; Not significant, *P < 0.05, **P < 0.01, ***P < 0.005.

[4] = system: WT-WT SOD1 interaction; parameters: method as in PMID 34912047; details: cited from earlier work
[5] = system: SOD1^G93A−Tg mice; parameters: method as in PMID 34912047; details: cited from earlier work
[6] = system: ALS; details: cited from earlier work
[7] = biological target: misfolding-specific SOD1 antibody (Mis-SOD1 Ab); assay: dot blot assay, band intensity quantified with Image J; details: normalised to Con, read off a plot
[8] = biological target: pan-SOD1 antibody (Pan-SOD1 Ab); assay: as above; details: normalised to Con, read off a plot
[9] = Con (no PRG-A-04), Mis-SOD1 signal over Pan-SOD1 signal
[10] = PRG-A-04 treated, Mis-SOD1 signal over Pan-SOD1 signal

Sequence of WT-SOD1 (wild-type SOD1) expressed in transfected cells (from UniProt P00441) G85R (P00441 whole entry, looked up, stated change not applied): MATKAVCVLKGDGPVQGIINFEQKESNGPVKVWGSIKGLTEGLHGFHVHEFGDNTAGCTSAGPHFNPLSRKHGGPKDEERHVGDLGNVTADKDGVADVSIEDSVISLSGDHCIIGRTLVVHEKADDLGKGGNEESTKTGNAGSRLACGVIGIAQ
Sequence of WT-SOD1 (wild-type SOD1) expressed in transfected cells (from UniProt P00441) G93A (P00441 whole entry, looked up, stated change not applied): as above

recovery at 4 h, 10 µM [1]: < 109%
Molecule: CC(C)NCC(O)COc1ccc(CC(N)=O)cc1 (stereo not shown) [Atenolol]

Molecule: O=C(N/N=C/c1ccc(O)c(O)c1)c1cc2ccccc2cc1O [Dynasore, reference compound]
effect on SOD1 protein uptake [2]: inhibited

bioavailability ([3]; in vivo): poorly bioavailable
degradation in blood as well as gastro-intestinal tract ([3]; pharmacokinetics analysis, IV and PO groups (Fig. S1d)): rapid
Molecule: COc1cc(C=CC(=O)OC2Cc3cc4ccc(=O)oc4cc3OC2(C)C)ccc1O (stereo not shown) [PRG-A-01]
effect on WT-WT SOD1 interaction [4]: did not show inhibitory effects
extension of lifespan of SOD1G93A-Tg mice [5]: about 10 days

Mean Pe ([1]; BBB-PAMPA, test concentration 10 µM, incubation 4 hour): 7.66 ×10⁻⁶ cm/s
Permeability ([1]; BBB-PAMPA, test concentration 10 µM, incubation 4 hour, class in words): High
recovery at 4 h, 10 µM [1]: 82.4%
Molecule: CC(C)NCC(O)COc1cccc2ccccc12 (stereo not shown) [Propranolol]

Molecule: CC1=NN(c2ccccc2)C(=O)C1 [radicava]
efficacy on ALS progression [6]: efficacy in delaying ALS progression
efficacy on survival rate [6]: no efficacy on survival rate

Molecule: Nc1nc2ccc(OC(F)(F)F)cc2s1 [riluzole]
efficacy on ALS progression [6]: efficacy in delaying ALS progression

Molecule: Tofersen
effect on functional decline in clinical trials ([6]; SOD1-ALS patients): failed to improve functional decline

response [7, 9]: 1 A.U.
response ([7]; Con (no PRG-A-04)): 1 A.U.
response [7, 10]: 0.42 A.U.
response ([7]; PRG-A-04 treated): 0.53 A.U.
response ([8]; Con (no PRG-A-04)): 1 A.U.
response ([8]; PRG-A-04 treated): 1.3 A.U.
Molecule: WT-SOD1 (wild-type SOD1) expressed in transfected cells (from UniProt P00441) G85R

response [7, 9]: 1 A.U.
response ([7]; Con (no PRG-A-04)): 1 A.U.
response [7, 10]: 0.25 A.U.
response ([7]; PRG-A-04 treated): 0.2 A.U.
response ([8]; Con (no PRG-A-04)): 1 A.U.
response ([8]; PRG-A-04 treated): 0.77 A.U.
Molecule: WT-SOD1 (wild-type SOD1) expressed in transfected cells (from UniProt P00441) G93A
